The structures appear in SMILES notation.

Assay [1] has as its target Mitogen-activated protein kinase kinase kinase kinase 5 (Homo sapiens) (UniProt Q9Y4K4). The assay can be described thus: Selectivity interaction (Kinase panel (Reaction Biology)) EUB0001464a MAP4K5. The following applies: at 1 µM.
Assay [2] deals with Epithelial discoidin domain-containing receptor 1 (Homo sapiens) (UniProt Q08345). The assay can be described thus: Selectivity interaction (Kinase panel (Reaction Biology)) EUB0001464a DDR1. The following applies: at 1 µM.
Assay [3] concerns the target Sodium-dependent dopamine transporter (Homo sapiens, UniProt Q01959). The assay can be described thus: Selectivity interaction (GPCR panel (PDSP screen)) EUB0001576a SLC6A3. The following applies: at 10 µM.
Assay [4] concerns the target Sigma intracellular receptor 2 (Homo sapiens) (UniProt Q5BJF2). Briefly: Selectivity interaction (GPCR panel (PDSP screen)) EUB0001576a TMEM97. The following applies: at 10 µM.
Assay [5] concerns the target T1, 5-hydroxytryptamine receptor 2B (Homo sapiens, UniProt P41595). Briefly: Selectivity interaction (GPCR panel (PDSP screen)) EUB0001576a HTR2B. To be noted: at 10 µM.
Assay [6] addresses Calcium/calmodulin-dependent protein kinase type II subunit gamma (Homo sapiens) (UniProt Q13555). Briefly: Selectivity interaction (KinaseProfile service (Milipore)) EUB0001485aCl CAMK2G. To be noted: at 1 µM.
Assay [7] addresses MAP kinase-interacting serine/threonine-protein kinase 2 (Homo sapiens, UniProt Q9HBH9). The following applies: at 1 µM.
Assay [8] deals with Calcium/calmodulin-dependent protein kinase type II subunit delta (Homo sapiens) (UniProt Q13557). The following applies: at 1 µM.
Calcium/calmodulin-dependent protein kinase type II subunit delta (Homo sapiens), sequence (Q13557 whole entry): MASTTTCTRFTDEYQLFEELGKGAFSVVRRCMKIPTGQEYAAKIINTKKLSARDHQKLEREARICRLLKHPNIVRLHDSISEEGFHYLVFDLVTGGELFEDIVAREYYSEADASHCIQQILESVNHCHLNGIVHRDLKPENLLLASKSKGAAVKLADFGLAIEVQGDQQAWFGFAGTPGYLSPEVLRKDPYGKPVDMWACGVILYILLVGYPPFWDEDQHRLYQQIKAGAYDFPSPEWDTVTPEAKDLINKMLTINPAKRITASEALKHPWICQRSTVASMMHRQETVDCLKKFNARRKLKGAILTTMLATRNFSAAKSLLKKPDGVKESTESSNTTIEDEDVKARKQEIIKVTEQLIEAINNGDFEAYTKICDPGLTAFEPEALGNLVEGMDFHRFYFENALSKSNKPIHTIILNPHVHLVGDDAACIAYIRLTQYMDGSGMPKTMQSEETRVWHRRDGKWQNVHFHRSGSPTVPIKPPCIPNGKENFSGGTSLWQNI
In assay [9] the target is TRAF2 and NCK-interacting protein kinase (Homo sapiens) (UniProt Q9UKE5). Briefly: Selectivity interaction (Kinase panel (Reaction Biology)) EUB0001184b TNIK. To be noted: at 1 µM.
The target in assay [10] is Mitogen-activated protein kinase kinase kinase kinase 4 (Homo sapiens, UniProt O95819). Briefly: Selectivity interaction (Kinase panel (Reaction Biology)) EUB0001184b MAP4K4. To be noted: at 1 µM.
Assay [11] has as its target Bone morphogenetic protein receptor type-1B (Homo sapiens, UniProt O00238). The assay can be described thus: Selectivity interaction (Kinase panel (Reaction Biology)) EUB0001184b BMPR1B. To be noted: at 1 µM.
Assay [12] addresses T2, Serine/threonine-protein kinase 26 (Homo sapiens, UniProt Q9P289). To be noted: at 100 nM.
Assay [13] deals with Tyrosine-protein kinase Lck (Homo sapiens, UniProt P06239). The assay can be described thus: Selectivity interaction (Kinase panel (Invitrogen)) EUB0001119a LCK. The following applies: at 100 nM.
Assay [14] deals with 5-hydroxytryptamine receptor 4 (Homo sapiens) (UniProt Q13639). The assay can be described thus: Selectivity interaction (CEREB panel (panel of receptors, transporters, ion channels, and other enzymes)) EUB0001119a HTR4. The following applies: at 10 µM.
For assay [15], the target named is 5-hydroxytryptamine receptor 1B (Homo sapiens) (UniProt P28222). Briefly: Selectivity interaction (CEREB panel (panel of receptors, transporters, ion channels, and other enzymes)) EUB0001119a HTR1B. To be noted: at 10 µM.
For assay [16], the target named is T1, 5-hydroxytryptamine receptor 2B. Briefly: Selectivity interaction (CEREB panel (panel of receptors, transporters, ion channels, and other enzymes)) EUB0001119a HTR2B. The following applies: at 10 µM.
Assay [17] addresses Serine/threonine-protein kinase PAK 2 (Homo sapiens) (UniProt Q13177). To be noted: at 100 nM.
Assay [18] has as its target 5-hydroxytryptamine receptor 2A (Homo sapiens, UniProt P28223). Briefly: Selectivity interaction (CEREB panel (panel of receptors, transporters, ion channels, and other enzymes)) EUB0001119a HTR2A. To be noted: at 10 µM.
Assay [19] has as its target Serine/threonine-protein kinase 24 (Homo sapiens) (UniProt Q9Y6E0). Briefly: Selectivity interaction (Kinase panel (Invitrogen)) EUB0001119a STK24. The following applies: at 100 nM.
For assay [20], the target named is Serine/threonine-protein kinase PAK 3 (Homo sapiens) (UniProt O75914). The assay can be described thus: Selectivity interaction (Kinase panel (Invitrogen)) EUB0001119a PAK3. The following applies: at 100 nM.
The target in assay [21] is Sodium channel protein type 2 subunit alpha (Homo sapiens) (UniProt Q99250). The assay can be described thus: Selectivity interaction (CEREB panel (panel of receptors, transporters, ion channels, and other enzymes)) EUB0001119a SCN2A. To be noted: at 10 µM.
Assay [22] concerns the target Serine/threonine-protein kinase SIK1 (Homo sapiens) (UniProt P57059). Briefly: Selectivity interaction (Kinase panel (Invitrogen)) EUB0001119a SIK1. To be noted: at 100 nM.
Assay [23] addresses Mitogen-activated protein kinase kinase kinase kinase 5 (Homo sapiens) (UniProt Q9Y4K4). The assay can be described thus: Selectivity interaction (Kinase panel (Invitrogen)) EUB0001119a MAP4K5. To be noted: at 100 nM.
Assay [24] deals with T3, 5-hydroxytryptamine receptor 1A (Homo sapiens) (UniProt P08908).
T3 sequence (whole entry): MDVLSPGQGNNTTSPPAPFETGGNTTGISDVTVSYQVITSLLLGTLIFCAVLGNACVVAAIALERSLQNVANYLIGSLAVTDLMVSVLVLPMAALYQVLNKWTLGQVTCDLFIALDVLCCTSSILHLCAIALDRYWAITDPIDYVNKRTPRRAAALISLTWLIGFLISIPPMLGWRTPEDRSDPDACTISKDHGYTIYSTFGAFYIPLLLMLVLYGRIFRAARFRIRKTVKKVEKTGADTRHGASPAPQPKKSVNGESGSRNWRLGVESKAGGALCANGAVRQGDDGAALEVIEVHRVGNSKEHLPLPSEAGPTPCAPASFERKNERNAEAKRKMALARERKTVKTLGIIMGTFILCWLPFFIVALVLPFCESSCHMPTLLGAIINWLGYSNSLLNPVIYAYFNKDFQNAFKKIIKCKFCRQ
Briefly: Selectivity interaction (CEREB panel (panel of receptors, transporters, ion channels, and other enzymes)) EUB0001119a HTR1A. The following applies: at 10 µM.

Assay [25] deals with T2, Serine/threonine-protein kinase 26. The assay can be described thus: Selectivity interaction (Kinase panel (DSF assay)) EUB0001479a STK26.
Assay [26] deals with Serine/threonine-protein kinase PAK 1 (Homo sapiens) (UniProt Q13153). Briefly: Selectivity interaction (Kinase panel (DSF assayt)) EUB0001479a PAK1.
Serine/threonine-protein kinase PAK 1 (Homo sapiens), sequence (Q13153 whole entry): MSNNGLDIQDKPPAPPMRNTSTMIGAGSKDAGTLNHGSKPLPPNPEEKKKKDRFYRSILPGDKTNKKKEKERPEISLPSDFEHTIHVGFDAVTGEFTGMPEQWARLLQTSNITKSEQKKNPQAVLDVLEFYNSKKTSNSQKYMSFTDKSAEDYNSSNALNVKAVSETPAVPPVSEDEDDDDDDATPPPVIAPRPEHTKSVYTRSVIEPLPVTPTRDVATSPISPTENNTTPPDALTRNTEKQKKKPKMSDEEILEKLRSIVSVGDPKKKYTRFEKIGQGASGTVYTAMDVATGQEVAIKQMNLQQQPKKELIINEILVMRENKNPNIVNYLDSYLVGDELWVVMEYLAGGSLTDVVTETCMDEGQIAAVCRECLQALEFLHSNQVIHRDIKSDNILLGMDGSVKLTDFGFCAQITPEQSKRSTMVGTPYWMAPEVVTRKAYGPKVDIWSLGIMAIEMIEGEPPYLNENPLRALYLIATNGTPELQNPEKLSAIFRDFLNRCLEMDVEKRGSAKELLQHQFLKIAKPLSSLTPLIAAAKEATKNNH
The target in assay [27] is Serine/threonine-protein kinase 24 (Homo sapiens) (UniProt Q9Y6E0). Briefly: Selectivity interaction (Kinase panel (DSF assay)) EUB0001479a STK24.
Serine/threonine-protein kinase 24 (Homo sapiens), sequence (Q9Y6E0 whole entry, looked up): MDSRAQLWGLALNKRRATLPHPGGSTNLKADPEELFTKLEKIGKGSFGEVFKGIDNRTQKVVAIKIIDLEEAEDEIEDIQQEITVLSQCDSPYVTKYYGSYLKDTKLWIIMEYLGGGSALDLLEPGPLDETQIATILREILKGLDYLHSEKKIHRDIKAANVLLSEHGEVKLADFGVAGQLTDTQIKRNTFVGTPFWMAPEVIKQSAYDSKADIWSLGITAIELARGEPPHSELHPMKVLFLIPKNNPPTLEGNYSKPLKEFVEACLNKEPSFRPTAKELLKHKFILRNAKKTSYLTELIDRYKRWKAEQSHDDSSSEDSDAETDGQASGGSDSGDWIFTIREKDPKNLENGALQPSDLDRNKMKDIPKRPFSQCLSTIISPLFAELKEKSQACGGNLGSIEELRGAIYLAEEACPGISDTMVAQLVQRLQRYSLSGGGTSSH

T2 sequence (Q9P289 2-416 limits assumed): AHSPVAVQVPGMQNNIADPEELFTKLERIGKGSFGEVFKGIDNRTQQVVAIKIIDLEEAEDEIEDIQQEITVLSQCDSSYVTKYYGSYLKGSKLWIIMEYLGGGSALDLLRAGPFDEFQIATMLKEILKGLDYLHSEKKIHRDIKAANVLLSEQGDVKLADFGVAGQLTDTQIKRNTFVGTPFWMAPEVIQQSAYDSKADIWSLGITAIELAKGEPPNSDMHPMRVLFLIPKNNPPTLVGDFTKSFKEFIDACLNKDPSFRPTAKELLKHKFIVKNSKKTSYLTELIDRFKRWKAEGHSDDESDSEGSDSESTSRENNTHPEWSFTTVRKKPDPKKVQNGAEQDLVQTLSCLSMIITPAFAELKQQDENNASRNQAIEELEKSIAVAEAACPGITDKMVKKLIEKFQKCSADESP
T1 sequence (P41595 whole entry): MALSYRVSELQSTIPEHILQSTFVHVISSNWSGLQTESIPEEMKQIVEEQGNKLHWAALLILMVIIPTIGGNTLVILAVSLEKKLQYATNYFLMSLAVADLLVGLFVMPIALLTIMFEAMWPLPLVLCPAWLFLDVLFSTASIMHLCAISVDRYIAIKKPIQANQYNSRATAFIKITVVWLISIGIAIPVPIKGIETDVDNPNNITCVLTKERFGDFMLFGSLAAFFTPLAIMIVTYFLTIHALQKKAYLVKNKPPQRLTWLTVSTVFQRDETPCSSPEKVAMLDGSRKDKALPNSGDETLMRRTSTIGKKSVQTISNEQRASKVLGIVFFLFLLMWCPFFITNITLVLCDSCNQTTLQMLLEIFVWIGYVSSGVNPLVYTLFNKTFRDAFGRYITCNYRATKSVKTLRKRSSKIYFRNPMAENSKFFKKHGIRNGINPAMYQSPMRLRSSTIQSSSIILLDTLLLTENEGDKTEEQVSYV
Mitogen-activated protein kinase kinase kinase kinase 5 (Homo sapiens), sequence (Q9Y4K4 whole entry, looked up, the tested form may be a part): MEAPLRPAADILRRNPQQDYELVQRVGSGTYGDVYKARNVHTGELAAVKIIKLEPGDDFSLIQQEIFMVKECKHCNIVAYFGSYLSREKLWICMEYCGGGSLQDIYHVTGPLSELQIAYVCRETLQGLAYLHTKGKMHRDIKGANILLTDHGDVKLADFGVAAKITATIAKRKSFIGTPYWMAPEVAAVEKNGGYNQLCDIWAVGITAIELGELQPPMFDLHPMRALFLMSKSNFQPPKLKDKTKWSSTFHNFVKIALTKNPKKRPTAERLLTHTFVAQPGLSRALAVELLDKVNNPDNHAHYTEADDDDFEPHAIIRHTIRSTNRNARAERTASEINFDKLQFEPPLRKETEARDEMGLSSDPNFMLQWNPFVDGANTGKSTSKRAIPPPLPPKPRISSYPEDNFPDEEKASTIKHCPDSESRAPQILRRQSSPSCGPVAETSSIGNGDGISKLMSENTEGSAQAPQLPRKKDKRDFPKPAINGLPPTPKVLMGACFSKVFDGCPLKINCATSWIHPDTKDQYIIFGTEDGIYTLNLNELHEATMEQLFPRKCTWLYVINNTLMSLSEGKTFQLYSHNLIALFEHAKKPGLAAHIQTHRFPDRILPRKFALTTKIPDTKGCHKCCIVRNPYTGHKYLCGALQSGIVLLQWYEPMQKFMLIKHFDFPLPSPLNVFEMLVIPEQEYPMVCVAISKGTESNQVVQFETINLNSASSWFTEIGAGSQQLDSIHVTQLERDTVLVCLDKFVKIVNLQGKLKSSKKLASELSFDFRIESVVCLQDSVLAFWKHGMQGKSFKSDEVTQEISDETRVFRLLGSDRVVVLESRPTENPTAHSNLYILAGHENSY
Serine/threonine-protein kinase PAK 2 (Homo sapiens), sequence (Q13177 whole entry): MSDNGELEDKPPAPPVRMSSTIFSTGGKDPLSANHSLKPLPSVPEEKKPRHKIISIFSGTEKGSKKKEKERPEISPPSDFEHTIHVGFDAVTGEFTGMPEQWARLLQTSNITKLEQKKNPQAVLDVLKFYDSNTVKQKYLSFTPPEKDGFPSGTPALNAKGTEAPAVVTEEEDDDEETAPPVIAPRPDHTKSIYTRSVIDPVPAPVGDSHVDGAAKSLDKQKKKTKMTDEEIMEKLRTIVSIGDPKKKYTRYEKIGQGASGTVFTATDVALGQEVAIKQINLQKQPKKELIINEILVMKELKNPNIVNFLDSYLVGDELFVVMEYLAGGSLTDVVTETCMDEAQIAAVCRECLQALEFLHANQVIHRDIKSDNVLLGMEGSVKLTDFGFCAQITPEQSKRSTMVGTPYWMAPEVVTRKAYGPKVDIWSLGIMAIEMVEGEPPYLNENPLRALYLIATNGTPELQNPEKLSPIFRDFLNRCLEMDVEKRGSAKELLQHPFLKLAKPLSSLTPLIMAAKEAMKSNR
Bone morphogenetic protein receptor type-1B, sequence (O00238 whole entry): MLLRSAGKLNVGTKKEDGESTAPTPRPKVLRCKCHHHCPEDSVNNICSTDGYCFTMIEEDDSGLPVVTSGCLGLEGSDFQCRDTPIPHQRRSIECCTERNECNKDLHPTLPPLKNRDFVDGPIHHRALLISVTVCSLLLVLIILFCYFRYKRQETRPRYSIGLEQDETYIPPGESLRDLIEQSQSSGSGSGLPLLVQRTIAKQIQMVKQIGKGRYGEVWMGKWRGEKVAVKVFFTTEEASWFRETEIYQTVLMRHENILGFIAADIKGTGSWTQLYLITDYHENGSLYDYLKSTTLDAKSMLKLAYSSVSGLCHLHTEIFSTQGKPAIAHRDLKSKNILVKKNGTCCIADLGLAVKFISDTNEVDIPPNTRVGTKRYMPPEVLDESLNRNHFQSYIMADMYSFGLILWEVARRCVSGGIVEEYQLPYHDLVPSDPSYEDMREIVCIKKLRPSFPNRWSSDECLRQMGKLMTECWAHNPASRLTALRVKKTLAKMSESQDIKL
Sigma intracellular receptor 2 (Homo sapiens), sequence (Q5BJF2 whole entry): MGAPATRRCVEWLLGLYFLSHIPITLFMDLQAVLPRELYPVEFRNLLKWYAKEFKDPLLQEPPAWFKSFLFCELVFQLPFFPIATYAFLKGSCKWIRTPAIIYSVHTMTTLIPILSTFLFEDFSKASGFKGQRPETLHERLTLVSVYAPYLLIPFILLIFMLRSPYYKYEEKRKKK
MAP kinase-interacting serine/threonine-protein kinase 2, sequence (Q9HBH9 whole entry, looked up): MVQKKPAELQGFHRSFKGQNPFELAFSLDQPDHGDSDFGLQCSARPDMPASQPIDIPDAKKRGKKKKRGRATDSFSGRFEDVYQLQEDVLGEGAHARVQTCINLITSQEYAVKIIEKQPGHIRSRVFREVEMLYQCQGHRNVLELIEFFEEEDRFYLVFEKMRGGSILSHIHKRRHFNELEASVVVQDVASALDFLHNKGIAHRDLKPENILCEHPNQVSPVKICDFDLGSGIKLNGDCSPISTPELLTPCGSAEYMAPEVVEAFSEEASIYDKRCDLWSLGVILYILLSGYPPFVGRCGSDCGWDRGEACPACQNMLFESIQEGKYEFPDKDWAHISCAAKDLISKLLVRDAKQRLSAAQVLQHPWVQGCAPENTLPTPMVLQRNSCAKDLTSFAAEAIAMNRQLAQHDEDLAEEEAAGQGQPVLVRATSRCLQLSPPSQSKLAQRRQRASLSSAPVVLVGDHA

`c1ccc2c(-c3coc4cc(-c5ccc(N6CCNCC6)cc5)cnc34)ccnc2c1`: the % of inhibition in assay [1] and in [2] was 28% each time.
Take `CN(C)C(=O)c1sc2nc(N3CCC(S(C)(=O)=O)CC3)cc(C(F)(F)F)c2c1N`: the % of inhibition in assay [3] was 80.5%; in assay [4], 70.6%; in assay [5], 47.5%.
As to `COc1cc(-c2cn[nH]c2)ccc1C(=O)Nc1ccc2c(c1)CCNCC2`, the % of control is 59% in assay [6], 55% in assay [7] and 60% in assay [8].
Take `COc1cc(-c2cncc(-c3ccc(N4CCN(C(C)C)CC4)cc3)c2C)cc(F)c1C(N)=O`: the % of inhibition in assay [9] was 4.92%; in [10] it was 30%; in assay [11], 27%.
Consider `CNc1ncc2cc(-c3ccc(-c4cccc(C)n4)cc3Cl)c(=O)n(C[C@H]3OC[C@H](N)CO3)c2n1`, for which the % of inhibition in [12] amounted to 89.7%; in assay [13], 75.7%; in assay [14], 75%; in assay [15], 84%; in assay [16] it was 92%; in assay [17], 101%. Besides, the % of inhibition came out at 75% in [18]; 80.6% in assay [19]; 91.5% in assay [20]; 75% in assay [21]; 95.3% in [22]; 99.8% in assay [23]. For the same molecule, in assay [24], the % of inhibition was 56%.
As for `CN(C)c1ncc2cc(-c3ccc(-c4ncccc4F)cc3Cl)c(=O)n(C[C@H]3OC[C@H](N)CO3)c2n1`, the dTM in assay [25] was determined as 0.8 K; in assay [26], 0.9 K; in assay [27], 0.2 K.

Source of the values: ChEMBL document CHEMBL5465560, “Selectivity Literature for EUbOPEN Chemogenomic Library” (2024).
